Measured values reported in ChEMBL document CHEMBL1201862, “PubChem BioAssay data set” (2004).
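Assay format: 96-well plates, 48-hour exposure. GI50 is the concentration that inhibits growth by half.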 The source made the active and inactive calls. No stated cut-off is given here; in the data, active = GI50 up to about 1.1 µM and inactive = higher.

Assays:
Experiment in all cases: DTP human tumour cell line panel, 48 h
MOLT-4 = tested on: MOLT-4
OVCAR-8 = tested on: OVCAR-8
OVCAR-4 = tested on: OVCAR-4
SNB-75 = tested on: SNB-75
SW-620 = tested on: SW-620
OVCAR-3 = tested on: OVCAR-3
SK-MEL-2 = tested on: SK-MEL-2
MCF7 = tested on: MCF7
LOX IMVI = tested on: LOX IMVI
UACC-62 = tested on: UACC-62
NCI-H522 = tested on: NCI-H522
SN12C = tested on: SN12C
M14 = tested on: M14
ACHN = tested on: ACHN
U-251 = tested on: U-251
HOP-92 = tested on: HOP-92
HT-29 = tested on: HT-29
DU-145 = tested on: DU-145
SK-OV-3 = tested on: SK-OV-3
RPMI-8226 = tested on: RPMI-8226

Structure (SMILES)	GI50 (MOLT-4)	GI50 (OVCAR-8)	GI50 (OVCAR-4)	GI50 (SNB-75)	GI50 (SW-620)	GI50 (OVCAR-3)	GI50 (SK-MEL-2)	GI50 (MCF7)	GI50 (LOX IMVI)	GI50 (UACC-62)	GI50 (NCI-H522)	GI50 (SN12C)	GI50 (M14)	GI50 (ACHN)	GI50 (U-251)	GI50 (HOP-92)	GI50 (HT-29)	GI50 (DU-145)	GI50 (SK-OV-3)	GI50 (RPMI-8226)
Cc1ccc(C)c2c1CC(Cc1ccccc1C(=O)O)C2=O (configuration not stated)	> 100 µM (inactive)	> 100 µM (inactive)	> 100 µM (inactive)	> 100 µM (inactive)	> 100 µM (inactive)	> 100 µM (inactive)	> 100 µM (inactive)	> 100 µM (inactive)	> 100 µM (inactive)	> 100 µM (inactive)	> 100 µM (inactive)	> 100 µM (inactive)	> 100 µM (inactive)	> 100 µM (inactive)	> 100 µM (inactive)	> 100 µM (inactive)	> 100 µM (inactive)	> 100 µM (inactive)	> 100 µM (inactive)	–
O=C1NC(c2ccc3ccccc3c2)Nc2ccccc21 (configuration not stated)	–	33.4 µM (inactive)	58.5 µM (inactive)	75.7 µM (inactive)	43.8 µM (inactive)	–	35.9 µM (inactive)	46.1 µM (inactive)	58.7 µM (inactive)	21.9 µM (inactive)	–	–	35.9 µM (inactive)	48.1 µM (inactive)	> 100 µM (inactive)	36.7 µM (inactive)	24.8 µM (inactive)	49.5 µM (inactive)	53.5 µM (inactive)	29.9 µM (inactive)
COC(=O)c1ccccc1C1CN=NC12Cc1cc(C)c(C)cc1C2=O (configuration not stated)	34.3 µM (inactive)	54.6 µM (inactive)	29.6 µM (inactive)	29.9 µM (inactive)	51.6 µM (inactive)	27.5 µM (inactive)	49.7 µM (inactive)	24.4 µM (inactive)	20.4 µM (inactive)	53 µM (inactive)	14.3 µM (inactive)	48.9 µM (inactive)	40.7 µM (inactive)	40.2 µM (inactive)	41.6 µM (inactive)	28 µM (inactive)	29.4 µM (inactive)	> 100 µM (inactive)	40.3 µM (inactive)	–
COc1cc(/C=C/c2ccc(O)c(OC)c2)cc(OC)c1	20.9 µM (inactive)	37.5 µM (inactive)	41.8 µM (inactive)	23.1 µM (inactive)	30.1 µM (inactive)	–	–	26.2 µM (inactive)	–	–	–	–	21 µM (inactive)	22.2 µM (inactive)	19.5 µM (inactive)	12.3 µM (inactive)	30.8 µM (inactive)	23.1 µM (inactive)	26.9 µM (inactive)	30.3 µM (inactive)
COc1cc(C(C)(C)C)c(OC(=O)/C=C/C(=O)O/C=C/[N+](=O)[O-])c(C(C)(C)C)c1	> 100 µM (inactive)	36.4 µM (inactive)	–	> 100 µM (inactive)	28.4 µM (inactive)	32.7 µM (inactive)	–	13.5 µM (inactive)	24.2 µM (inactive)	33.2 µM (inactive)	29.9 µM (inactive)	41.3 µM (inactive)	21.1 µM (inactive)	30.5 µM (inactive)	47.1 µM (inactive)	> 100 µM (inactive)	21.1 µM (inactive)	38.2 µM (inactive)	> 100 µM (inactive)	> 100 µM (inactive)
COc1cc(C2CC(C)(N3CCOCC3)Oc3cc4c(cc32)OCO4)cc(OC)c1OC (configuration not stated)	0.136 µM (active)	0.531 µM (active)	0.275 µM (active)	–	0.136 µM (active)	0.207 µM (active)	–	0.458 µM (active)	0.136 µM (active)	0.139 µM (active)	0.226 µM (active)	0.189 µM (active)	0.421 µM (active)	0.243 µM (active)	0.0577 µM (active)	2.67 µM (inactive)	0.131 µM (active)	0.167 µM (active)	0.482 µM (active)	0.0263 µM (active)
CN1CCN(C(=S)N(C(=O)c2ccc(Cl)cc2)c2ccccc2)CC1	> 100 µM (inactive)	> 100 µM (inactive)	> 100 µM (inactive)	41.8 µM (inactive)	> 100 µM (inactive)	> 100 µM (inactive)	> 100 µM (inactive)	> 100 µM (inactive)	> 100 µM (inactive)	> 100 µM (inactive)	> 100 µM (inactive)	> 100 µM (inactive)	> 100 µM (inactive)	> 100 µM (inactive)	> 100 µM (inactive)	> 100 µM (inactive)	> 100 µM (inactive)	> 100 µM (inactive)	–	> 100 µM (inactive)
CCOP(=O)(OCC)C1CC(n2cc(C)c(=O)[nH]c2=O)OC1CO (configuration not stated)	> 100 µM (inactive)	> 100 µM (inactive)	> 100 µM (inactive)	> 100 µM (inactive)	> 100 µM (inactive)	> 100 µM (inactive)	> 100 µM (inactive)	> 100 µM (inactive)	> 100 µM (inactive)	> 100 µM (inactive)	83.8 µM (inactive)	> 100 µM (inactive)	> 100 µM (inactive)	> 100 µM (inactive)	> 100 µM (inactive)	> 100 µM (inactive)	> 100 µM (inactive)	> 100 µM (inactive)	–	> 100 µM (inactive)
O=C1C[C@H](c2ccccc2)O[C@@H](c2ccccc2)C1	58.1 µM (inactive)	> 100 µM (inactive)	> 100 µM (inactive)	> 100 µM (inactive)	> 100 µM (inactive)	> 100 µM (inactive)	> 100 µM (inactive)	74.3 µM (inactive)	> 100 µM (inactive)	> 100 µM (inactive)	–	> 100 µM (inactive)	> 100 µM (inactive)	–	> 100 µM (inactive)	> 100 µM (inactive)	> 100 µM (inactive)	> 100 µM (inactive)	> 100 µM (inactive)	> 100 µM (inactive)
Cc1ccc(-n2cc(-c3ccc(Cl)cc3)c3c2N=CN2N=C(c4cccs4)NC32)cc1 (configuration not stated)	–	6.46 µM (inactive)	2.21 µM (inactive)	8.38 µM (inactive)	14.4 µM (inactive)	9.73 µM (inactive)	13.1 µM (inactive)	32.5 µM (inactive)	15.7 µM (inactive)	23.2 µM (inactive)	21.6 µM (inactive)	10.1 µM (inactive)	18.7 µM (inactive)	5.07 µM (inactive)	4.81 µM (inactive)	7.64 µM (inactive)	23 µM (inactive)	> 100 µM (inactive)	14.9 µM (inactive)	–
Cc1cc(C)nc(NS(=O)(=O)c2ccc(Nc3nnc(/C=C/c4c(O)ccc5ccccc45)c(=O)n3N)cc2)n1	> 100 µM (inactive)	25.7 µM (inactive)	22.5 µM (inactive)	17.3 µM (inactive)	43.9 µM (inactive)	13.2 µM (inactive)	–	17.7 µM (inactive)	–	29 µM (inactive)	–	22.3 µM (inactive)	22.1 µM (inactive)	23 µM (inactive)	–	47.5 µM (inactive)	57.8 µM (inactive)	36.4 µM (inactive)	51.4 µM (inactive)	30.1 µM (inactive)
O=C(NC(CO)Cc1ccc(Oc2cc(CC(CO)NC(=O)OCc3ccccc3)ccc2OC(=O)OCc2ccccc2)cc1)OCc1ccccc1 (configuration not stated)	3.32 µM (inactive)	15.4 µM (inactive)	18.8 µM (inactive)	16.5 µM (inactive)	26.3 µM (inactive)	19.5 µM (inactive)	19.3 µM (inactive)	11.8 µM (inactive)	12.1 µM (inactive)	–	–	19.1 µM (inactive)	18.2 µM (inactive)	19.9 µM (inactive)	–	19.5 µM (inactive)	14.2 µM (inactive)	21 µM (inactive)	21.3 µM (inactive)	2.94 µM (inactive)
Nc1nc(Nc2ccc(Cl)cc2)sc1C(=O)c1cc2ccccc2oc1=O	–	–	27.7 µM (inactive)	7.55 µM (inactive)	54.1 µM (inactive)	4.84 µM (inactive)	7.94 µM (inactive)	25 µM (inactive)	23.8 µM (inactive)	55.8 µM (inactive)	–	14.2 µM (inactive)	68.9 µM (inactive)	> 100 µM (inactive)	18.8 µM (inactive)	53.2 µM (inactive)	72.4 µM (inactive)	74.6 µM (inactive)	20.7 µM (inactive)	29.4 µM (inactive)
CC/C=C/c1cc2c(cc1O)CCC1C2CC[C@@]2(C)C1CC[C@@H]2O (some centres not stated)	1.97 µM (inactive)	4.31 µM (inactive)	19.9 µM (inactive)	1.44 µM (inactive)	1.12 µM (active)	0.265 µM (active)	1.21 µM (inactive)	1.08 µM (active)	0.904 µM (active)	–	0.475 µM (active)	–	1.17 µM (inactive)	2.14 µM (inactive)	1.7 µM (inactive)	12 µM (inactive)	7.93 µM (inactive)	2.76 µM (inactive)	2.43 µM (inactive)	1.89 µM (inactive)
c1ccc(NC2(c3nnnn3C3CCCCC3)CCNCC2)cc1	18.2 µM (inactive)	28.6 µM (inactive)	49.8 µM (inactive)	14.9 µM (inactive)	22.2 µM (inactive)	–	–	18.5 µM (inactive)	15.7 µM (inactive)	18.3 µM (inactive)	–	36.6 µM (inactive)	17.6 µM (inactive)	20.1 µM (inactive)	16.6 µM (inactive)	6.01 µM (inactive)	16.7 µM (inactive)	37 µM (inactive)	26 µM (inactive)	22.9 µM (inactive)
O=c1c2ccccc2nc(N/N=C/c2ccc(Cl)cc2)n1-c1ccccc1	> 100 µM (inactive)	77.1 µM (inactive)	21.1 µM (inactive)	0.0269 µM (active)	> 100 µM (inactive)	> 100 µM (inactive)	17.5 µM (inactive)	> 100 µM (inactive)	> 100 µM (inactive)	> 100 µM (inactive)	67 µM (inactive)	> 100 µM (inactive)	> 100 µM (inactive)	> 100 µM (inactive)	46.6 µM (inactive)	98.6 µM (inactive)	> 100 µM (inactive)	> 100 µM (inactive)	> 100 µM (inactive)	–
